One data set addresses T1, Aβ1–42 self-aggregation (Homo sapiens, UniProt P05067).
T1 construct: Commercially available Aβ1-42 peptide was obtained from Aldrich; purchased Aldrich
The experiment in a line: Aβ1–42 self-aggregation inhibition, thioflavin T fluorescence assay. It counts as biochemical. To be noted: self-mediated Aβ42 aggregation, ThT fluorescence, CL = 40 μM, means of two experiments; for inhibition at 40 µM: read-out: Inhibition of Aβ-self-aggregation (%). As for the experimental part:
[…]. Since the compounds of this series presented some solubility problems in methanol, the assays were performed with ligands at concentrations of 40 µM, i.e., half of the concentration usually used (80 µM) in these assays. […]. […] So, it appears that introduction of a chloro substituent in TAC and/or a hydroxyl group in the carbon linker are not well suited for the interaction with β-sheet secondary structure of Aβ aggregates. […].
Commercially available Aβ1-42 peptide was obtained from Aldrich and stored at −20 °C. It was treated with 1,1,1,3,3,3-hexafluoropropan-2-ol (HFIP) to avoid self-aggregation and reserved. HFIP pre-treated Aβ1–42 samples were re-dissolved in CH3CN/Na2CO3 (300 µM)/NaOH (250 µM) (48.3:48.3:4.3, v/v/v) solvent mixture in order to have a stable stock solution; this solution (500 µM) was further diluted in phosphate buffer (0.215 M, pH 8.0) to obtain 40 µM solution. The ligand, which was previously dissolved in methanol, was further diluted in phosphate buffer to a final concentration of 40 µM. Aβ1–42 aggregation was determined by measuring the fluorescence emission of Thioflavin T dye, with a Cary Eclipse Varian fluorimeter (Molecular Devices, San José, CA, USA).
After incubation for 24 h at 37 °C, without stirring, the samples were added to a 96-well plate (BD Falcon) with 180 µL of 5 µM ThT in 50 mM glycine-NaOH (pH 8.5) buffer. Blank samples were prepared for each concentration in a similar way, devoid of peptide. As for the control, a sample of the peptide was incubated under identical conditions but without the inhibitor. After 5-min incubation with the dye, the ThT fluorescence was measured at the following wavelengths: 446 nm (excitation) and 486 nm (emission). The percent inhibition of the self-induced aggregation due to the presence of the test compound was calculated by Equation (2), in which IFi and IF0 corresponded to the fluorescence intensities, in the presence and the absence of the test compound, minus the fluorescence intensities due to the respective blanks. I% = 100 − (IFi/IF0 × 100)(2)
The reported values were obtained as the mean ± S.E.M. of two different experiments.

The subject of a further data set is SH-SY5Y cells. The experiment in a line: Dose-response screening for non-toxic concentration, MTT reduction. The data set is classed as cell-based. To be noted: dose-response screening from 0.2 μM to 5 μM, 25 h. How it is done: The neuroprotective effect of TAC-PhBTA conjugates was evaluated using SH-SY5Y cells treated with Aβ1–42 peptides or ascorbate/iron. For each compound, a dose-response curve was performed to select a non-toxic concentration in order to analyze its neuroprotective effect (Figure 3).
SH-SY5Y human neuroblastoma cell line (ATCC-CRL-2266) grown in Dulbecco’s modified Eagle’s medium (DMEM) obtained from Gibco-Invitrogen (Life Technologies Ltd., Liverpool, UK) with 10% heat inactivated fetal calf serum, containing 50 U/mL penicillin, and 50 μg/mL streptomycin, under a humidified atmosphere of 95% air-5% CO2 at 37 °C. Cells were plated at 0.12 × 10^6 cells/mL for cell viability assay. […]. As a result we selected a 2.5 μM final concentration for compound 16; 0.5 μM final concentration for compound 17; 0.2 μM final concentration for compounds 14 and 15; and a 1 μM final concentration for compounds 19 and 18. […] The compounds were added to the cell media 1 h before the incubation with Aβ1–42 or ferrous sulfate/L-ascorbic acid. Aβ1–42 or ferrous sulfate/L-ascorbic acid where incubated alone or with the compound for an additional 24 h. Aβ1–42 was prepared as 276.9 μM stock in sterile water and added to the medium at 1 μM final concentration. Ferrous sulfate was freshly prepared as 0.36 M stock in water and added to the medium at 500 μM final concentration. L-Ascorbic Acid was freshly prepared as 80 mM stock in water and added to the medium at 5 mM final concentration. Aβ1–42 was purchased from Bachem (Torrance, CA, USA) and ferrous sulfate and L-ascorbic acid from Sigma Chemical Co (St. Louis, MO, USA).
Cell viability was determined by a MTT (3-(4,5-dimethylthiazol-2-yl)-2,5-diphenyltetrazolium bromide) reduction test. In viable cells, the enzyme succinate dehydrogenase metabolizes MTT into formazan that absorbs light at 570 nm. Following the cell treatment protocol the medium was aspirated and 0.5 mL MTT (0.5 mg/mL) was added to each well. The plate was then incubated at 37 °C for 1 h 30 min protected from light. At the end of the incubation period the formazan precipitates were solubilized with 0.5 mL of acidic isopropanol (0.04 M HCl/isopropanol). The absorbance was measured at 570 nm. Cell reduction ability was expressed as a percentage of untreated control cells.

One may read the inhibition as the percentage by which the read-out fell short of the control.

Structures are written as SMILES.

T1 sequence (P05067 672-713 limits assumed): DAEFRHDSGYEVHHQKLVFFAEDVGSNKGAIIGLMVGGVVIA

Take `COc1cc(-c2nc3ccccc3s2)ccc1OCC(=O)NCCNc1c2c(nc3cc(Cl)ccc13)CCCC2` [compound 15, 2-(4-(Benzo[d]thiazol-2-yl)-2-methoxyphenoxy)-N-(2-((6-chloro-1,2,3,4 tetrahydroacridin-9-yl)amino)ethyl)acetamide]: at Aβ1–42 self-aggregation, the inhibition at 40 µM amounted to 27%. Besides, the “Highest non-toxic concentration selected” value with SH-SY5Y cells amounted to 0.2 µM.

For `COc1cc(-c2nc3ccccc3s2)ccc1OCC(=O)NCCCNc1c2c(nc3ccccc13)CCCC2` [compound 16, 2-(4-(Benzo[d]thiazol-2-yl)-2-methoxyphenoxy)-N-(3-((1,2,3,4-tetrahydroacridin-9-yl)amino)propyl)acetamide], at Aβ1–42 self-aggregation, the inhibition at 40 µM turned out to be 33.7%. Moreover, the “Highest non-toxic concentration selected” value in the data set on SH-SY5Y cells is 2.5 µM.

Take `COc1cc(-c2nc3ccccc3s2)ccc1OCC(=O)NCC(O)CNc1c2c(nc3cc(Cl)ccc13)CCCC2` (stereo not shown) [compound 19, 2-(4-(Benzo[d]thiazol-2-yl)-2-methoxyphenoxy)-N-(3-((6-chloro-1,2,3,4-tetrahydroacridin-9-yl)amino)-2-hydroxypropyl)acetamide]: the “Inhibition of Aβ-self-aggregation (%)” value at Aβ1–42 self-aggregation (40 µM) is on record as 31.3%. For the same molecule, the inhibition at 40 µM on Aβ1–42 self-aggregation is around 31%. In addition, in the data set on SH-SY5Y cells, the “Highest non-toxic concentration selected” value came out at 1 µM.
